According to the supplement of paper PMC10011410:

What was measured:
U-2 OS [1] = assay: AUC of culture confluence over time (live-cell imaging) (AUC (confluence % x time)); higher = more confluent culture (less growth inhibition)
Method: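 Live-cell Incucyte imaging of U-2 OS cells in F-12K medium. Compounds were tested mostly at 5, 10 and 20 uM, and cells were imaged every 4 h for up to 60 h. Value is the area under the curve of phase-contrast confluence over time.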

U-2 OS [2] = assay: cell painting activity score (Mahalanobis distance from DMSO wells); higher = stronger morphological phenotype; details: 24 h
Method: (§1)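 Cell painting in U-2 OS cells (384-well, about 1,500 cells per well), compound exposure 24 h, usually six 2-fold concentrations from 20 to 0.625 uM (some compounds higher or lower). Relative cell count is the cell number per well relative to DMSO wells. Activity score is the Mahalanobis distance of the morphological profile from DMSO control wells. Mean of four technical replicate plates.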

U-2 OS [3] = assay: relative cell count vs DMSO (cell painting) (fraction of DMSO control); higher = more cells remaining (less cytotoxic); details: 24 h
Method: as §1

Structure (SMILES) | AUC of culture confluence over time (U-2 OS [1]; 5 µM) | AUC of culture confluence over time (U-2 OS [1]; 10 µM) | AUC of culture confluence over time (U-2 OS [1]; 20 µM) | cell painting activity score (U-2 OS [2]; 0.625 µM) | cell painting activity score (U-2 OS [2]; 1.25 µM) | cell painting activity score (U-2 OS [2]; 2.5 µM) | cell painting activity score (U-2 OS [2]; 5 µM) | cell painting activity score (U-2 OS [2]; 10 µM) | cell painting activity score (U-2 OS [2]; 20 µM) | relative cell count (U-2 OS [3]; 0.625 µM) | relative cell count (U-2 OS [3]; 1.25 µM) | relative cell count (U-2 OS [3]; 2.5 µM) | relative cell count (U-2 OS [3]; 5 µM) | relative cell count (U-2 OS [3]; 10 µM) | relative cell count (U-2 OS [3]; 20 µM) | cell painting activity score (U-2 OS [2]; 40 µM) | cell painting activity score (U-2 OS [2]; 80 µM) | relative cell count (U-2 OS [3]; 40 µM) | relative cell count (U-2 OS [3]; 80 µM)
C/C1=C/C(=O)O[C@@H]2C[C@@H](CC[C@H](C)/C=C\CC1)O[C@@](O)([C@@H]1CSC(=O)N1)C2 | 27.1 | 20.9 | 20.7 | 8.28 | 14.2 | 15.4 | 14.9 | 17.7 | 20 | 0.941 | 0.878 | 0.759 | 0.691 | 0.664 | 0.53 |  |  |  | 
COS(=O)(=O)O.C[n+]1c2ccccc2nc2ccccc21 |  |  |  | 4.8 | 5.06 | 9.91 | 14.3 | 19.6 | 23.1 | 0.956 | 0.92 | 0.807 | 0.265 | 0.282 | 0.0549 |  |  |  | 
Cl.Nc1ccc(O)c2ccccc12 | 31.2 | 23.5 | 18 | 8.19 | 6.08 | 9.4 | 14.3 | 15.3 | 30.8 | 0.931 | 0.895 | 0.888 | 0.75 | 0.623 | 0.09 |  |  |  | 
CC1OC2=C(C(=O)C(=O)c3ccccc32)C1(C)C (stereo not drawn) | 19.5 | 18.5 | 16 | 15 | 17.1 | 20.7 | 25.1 | 33.8 | 34.2 | 0.845 | 0.561 | 0.299 | 0.207 | 0.14 | 0.134 |  |  |  | 
Nc1ncn([C@H]2C[C@H](O)[C@@H](CO)O2)c(=O)n1 | 45.9 | 35.4 | 37.9 | 6.05 | 6.95 | 6.26 | 6.61 | 5.82 | 5.8 | 0.973 | 0.985 | 0.966 | 0.935 | 0.915 | 0.918 |  |  |  | 
CCN1C(=O)C=CC1=O |  |  |  | 4.77 | 5.69 | 7.04 | 9.18 | 20.6 | 26.6 | 0.938 | 0.928 | 0.891 | 0.724 | 0.254 | 0.0684 | 5.94 | 6.33 | 0.911 | 0.885
O=NN(CCCl)C(=O)NC1CCCCC1 | 46.1 | 48.4 | 47.4 | 3.56 | 4.22 | 4.72 | 4.42 | 4.76 | 7.36 | 0.975 | 0.937 | 0.985 | 0.988 | 0.963 | 0.875 |  |  |  | 
COc1ccc(/C=C/C(=O)O[C@@H]2[C@H](O[C@@H]3O[C@@H](C)[C@H](O)[C@@H](O)[C@H]3O)[C@@H](O[C@@H]3O[C@@H](C)[C@H](O[C@@H]4OC[C@@H](O[C@@H]5O[C@H](CO)[C@H](O)[C@H](O)[C@H]5O)[C@H](O)[C@H]4O)[C@@H](O)[C@H]3O)[C@H](OC(=O)[C@]34CCC(C)(C)C[C@H]3C3=CC[C@@H]5[C@@]6(C)C[C@H](O)[C@H](O[C@@H]7O[C@H](CO)[C@@H](O)[C@H](O)[C@H]7O)[C@@](C)(C(=O)O)[C@@H]6CC[C@@]5(C)[C@]3(CO)CC4)O[C@@H]2C)cc1 | 43.7 | 44.3 | 14.2 | 8.17 | 11.2 | 12.4 | 9.11 | 10.1 | 37.6 | 1.07 | 0.975 | 0.938 | 0.66 | 0.252 | 0.035 |  |  |  | 
N[C@@H](Cc1ccc(N(CCCl)CCCl)cc1)C(=O)O | 34.2 | 33.1 | 30.4 | 3.56 | 5.26 | 5.71 | 6.03 | 8.71 | 9.32 | 0.959 | 0.939 | 0.879 | 0.883 | 0.733 | 0.723 |  |  |  | 
O=c1cc(N2CCOCC2)oc2c(-c3ccccc3)cccc12 | 42.2 | 40.7 | 31.5 | 3.52 | 4.47 | 4.5 | 5.36 | 6.81 | 9.26 | 1.02 | 0.978 | 0.971 | 0.962 | 1 | 0.948 |  |  |  | 
